# Test: Test of compactability of different sugar alcohols (crushing strength vs compression force)
# Format: physicochemical
# Conditions: pure sugar alcohol compacts, single punch press, punch and die lubricated with magnesium stearate; FIG. 1
# Description: Tablets comprising either Neosorb P100T, Sorbidex P1666BO, Isomalt ST-PF, Maltisorb P90, Mannitol 60 or Xylitol CM50 were compressed on an instrumented Fette Exacta 1/F single punch tablet press, only maximum compression force on the upper punch was recorded.
# Before the compression of each tablet the punch tips and the die bore were lubricated with a 5% suspension of magnesium stearate in acetone. The acetone was allowed to evaporate before compression of the tablet.
# The sugar alcohol was weighed, transferred to the die bore and then compressed, see table 1. Immediately after ejection the tablet was tested for crushing strength.
# From FIG. 1 (each point is the average of three measurements) it is seen that the assumption was correct. Therefore, test of particle size was not repeated for the other sugar alcohols.
# The tabletting machine used is equipped with data acquisition that as a minimum measure the compaction force applied. However, any tabletting machine may be used provided the compaction force applied can be measured.
# The crushing strength has been measured by use of a Schleuniger-2E from the company Dr. Schleuniger and determined as the mean of measuring the crushing strength for 10 individual tablets.
row,compactability (slope of the correlation between compression force and crushing strength),Compound
1,very poor compactability,OC[C@@H](O)[C@@H](O[C@H]1O[C@H](CO)[C@@H](O)[C@H](O)[C@H]1O)[C@H](O)[C@@H](O)CO [Maltitol]
2,very poor compactability,"OC[C@@H](O)[C@@H](O)[C@H](O)[C@H](O)CO [mannitol, Mannitol]"
3,best compactability,"OC[C@@H](O)[C@@H](O)[C@H](O)[C@@H](O)CO [sorbitol, Sorbitol]"
4,very poor compactability,"OC[C@@H](O)[C@H](O)[C@@H](O)CO [xylitol, Xylitol]"
5,Sorbitol is followed by isomalt,Isomalt

# Same assay, conditions: two mean particle sizes, 38 μm and 110 μm; FIG. 1
row,"tablet crushing strength, dependence on particle size",Compound
1,independent of particle size,"OC[C@@H](O)[C@@H](O)[C@H](O)[C@@H](O)CO [sorbitol, Sorbitol]"
